According to patent US20030187017A1, “Method for treating functional dyspepsia” (priority 2002, published 2003):

Key:
[1] = tested on: FD patients; test: 12-week double-blind placebo-matched clinical study in FD patients: adequate relief of upper abdominal pain or discomfort and FD symptoms; type: in vivo, human; details: for Average Weekly Adequate Relief of Pain and Discomfort, Adequate Relief Rates: 12 weeks
Description: Three hundred and twenty (320) ambulatory outpatient male and female FD patients at least 18 years of age who have chronic or recurrent abdominal pain or discomfort centered in the upper abdomen were randomised for study comprising twelve (12) weeks of treatment: eighty one (81) were randomised to treatment with placebo BID, seventy seven (77) to 0.5 mg BID alosetron, seventy nine (79) to 1 mg BID alosetron, and eighty three (83) to 2 mg BID alosetron. Study participants included patients who have been diagnosed with FD and patients with symptoms that fulfilled the modified Rome criteria for FD for at least 6 months. Study participants were screened for two weeks prior to the testing phase, to confirm symptoms of sufficient severity for participation in the study. During the two-week screening period, those patients enrolled from the U.S. underwent a 90-minute gastric emptying test to characterize their gastric motility. At the end of the two-week period, all study participants underwent an esophagogastroduodenoseope (EGD) to rule out organic disease and obtain a biopsy for H. pylori within one month of screening. The study was double-blinded and placebo-matched. Eligible subjects were randomized (1:1:1:1 ratio) to either alosetron 0.5 mg, 1 mg, 2 mg, or matched placebo twice daily for a 12-week treatment phase followed by a one-week follow-up period. Laboratory evaluations and adverse events were recorded at the 4, 8 and 12-week (or final) treatment visits. The study was designed to elicit measurements relating to efficacy and safety. The primary endpoint was adequate relief of FD (upper abdominal) pain or discomfort. Secondary endpoints included 1) changes in daily upper abdominal pain severity ratings, 2) proportion of pain free days, 3) changes in self-ratings of nausea, early satiety, bloating or distension, post-prandial fullness and burping or belching, 4) changes in quality of life (QOL) SF-36 scores, 5) changes in SCL-90R® scores, and 6) safety and tolerability with respect to the incidence of adverse events and changes in laboratory values. Daily and weekly symptom data were collected using an electronic touch-tone telephone based system described in J. Harding, et al., Gastroenterology 112:[…] (1997); and J. Harding, et al., Aliment Pharm. Ther. 11:1073-761997. Severity of abdominal pain, nausea and bloating were assessed on a daily basis using a five point scale (0=none; 1=very mild; 2=mild; 3=moderate; 4=severe). During screening, the pain severity score was required to average ≧1.5 for entry into the study. During the treatment and follow-up phases, subjects were asked weekly if they had obtained adequate relief of their upper abdominal pain or discomfort during the previous 7 days. Subjects also responded daily to yes/no questions assessing whether early satiety, post-prandial fullness and burping or belching were present. Analyses were by Intent-to-Treat (ITT) using the last observation carried forward (LOCF) method for handling missing data. The ITT population included all subjects randomized to study treatment. The primary efficacy endpoint was the adequate relief of upper abdominal pain or discomfort. The 12-week average rate of adequate relief was calculated as the sum of the number of responses of “yes” over the 12 weeks of the treatment phase divided by 12 and multiplied by 100 using the LOCF approach. The proportion of patients with weekly adequate relief of upper abdominal pain or discomfort was compared between treatment groups using the Mantel-Haenszel test stratified by geographical clusters of treatment centers. Secondary efficacy measures included subject self-rating of pain severity, frequency and the FD symptoms of nausea, bloating/distension, burping/belching, early satiety and post-prandial fullness. […]

[2] = tested on: FD patients; test: Adverse events in the 12-week clinical study in FD patients; type: in vivo, human
Description: The study was double-blinded and placebo-matched. Eligible subjects were randomized (1:1:1:1 ratio) to either alosetron 0.5 mg, 1 mg, 2 mg, or matched placebo twice daily for a 12-week treatment phase followed by a one-week follow-up period. Laboratory evaluations and adverse events were recorded at the 4, 8 and 12-week (or final) treatment visits.
Adverse events were coded and group by body system. Adverse events occurring after randomization were summarized separately from adverse events occurring during the screening phase. For each body system and over all body systems, the frequency of subjects reporting at least one adverse event was calculated by treatment group. In addition, the number of subjects reporting at least one drug-related adverse event and the number of subjects reporting serious adverse events were summarized by treatment group. The four treatment groups were compared using a correlation chi-square test; pairwise comparisons were made with Fisher's exact test.

[3] = tested on: healthy subjects; details: isobarometric and isovolumetric gastric distensions; cited from earlier work
[4] = tested on: FD patients and healthy controls; details: cited from earlier work

In the case of `Cc1[nH]cnc1CN1CCc2c(c3ccccc3n2C)C1=O` [Alosetron, 2,3,4,5-tetrahydro-5-methyl-2-[(5-methyl-1H-imidazol-4-yl)methyl]-1H-pyrido[4,3-b]indol-1-one], the “Average Weekly Adequate Relief, % with Adequate Relief” value (shortened to “Average Weekly Adequate Relief, %”) ([1]; Abnormal gastric emptying (n = 14-16), 0.5 mg BID) is reported as 51%, the “Average Weekly Adequate Relief, %” value ([1]; Abnormal gastric emptying (n = 14-16), 1 mg BID) is reported as 59% and the “Average Weekly Adequate Relief, %” value ([1]; Abnormal gastric emptying (n = 14-16), 2 mg BID) is reported as 45%. For the same molecule, the “Abdominal pain and discomfort” value ([1]; FD patients, particularly female FD patients) was “substantially improved”, the “Average Weekly Adequate Relief of Pain and Discomfort, Adequate Relief Rates” value ([1]; Females (n = 50-60), 0.5 mg BID) was 49 and the “Average Weekly Adequate Relief of Pain and Discomfort, Adequate Relief Rates” value ([1]; Females (n = 50-60), 1 mg BID) was 54. The “Average Weekly Adequate Relief of Pain and Discomfort, Adequate Relief Rates” value ([1]; Females (n = 50-60), 2 mg BID) was 43, the “Average Weekly Adequate Relief of Pain and Discomfort, Adequate Relief Rates” value ([1]; Males (n = 20-33), 0.5 mg BID) was 39 and the “Average Weekly Adequate Relief of Pain and Discomfort, Adequate Relief Rates” value ([1]; Males (n = 20-33), 1 mg BID) was 43. The “Average Weekly Adequate Relief of Pain and Discomfort, Adequate Relief Rates” value ([1]; Males (n = 20-33), 2 mg BID) was 40, the “Average Weekly Adequate Relief, %” value ([1]; Normal gastric emptying (n = 32-34), 0.5 mg BID) was 60% and the “Average Weekly Adequate Relief, %” value ([1]; Normal gastric emptying (n = 32-34), 1 mg BID) was 56%. For the same molecule, the “Average Weekly Adequate Relief, %” value ([1]; Normal gastric emptying (n = 32-34), 2 mg BID) was 43%, the “Improvement in adequate relief by gastric emptying status” value ([1]; all doses, subjects with normal and subjects with abnormal gastric emptying) was “Improvement was observed for all doses” and the “Adequate relief rate as compared with placebo” value ([1]; each dose (0.5, 1, 2 mg BID)) was “greater adequate relief rate as compared with placebo”. For the same molecule, the “Nausea, early satiety and post-prandial fullness” value ([1]; female patients and patients with normal gastric emptying) was “substantially improved”, the “Adverse Events: Any event” value ([2]; 0.5 mg BID) was 68% and the “Adverse Events: GI event” value ([2]; 0.5 mg BID) was 58%. For the same molecule, the “Adverse Events: Neurology” value ([2]; 0.5 mg BID) was 9%, the “Adverse Events: constipation” value ([2]; 0.5 mg BID) was 45% and the “Adverse Events: Any event” value ([2]; 1 mg BID) was 68%. For the same molecule, the “Adverse Events: GI event” value ([2]; 1 mg BID) was 52%, the “Adverse Events: Neurology” value ([2]; 1 mg BID) was 4% and the “Adverse Events: constipation” value ([2]; 1 mg BID) was 34%. The “Adverse Events: Any event” value ([2]; 2 mg BID) was 75%, the “Adverse Events: GI event” value ([2]; 2 mg BID) was 63% and the “Adverse Events: Neurology” value ([2]; 2 mg BID) was 16%. The “Adverse Events: constipation” value ([2]; 2 mg BID) was 46%, the Tolerability ([2]; FD patients) was “well-tolerated” and the Visceral perception scores [3] was “effect similar to placebo”.

In the case of `CN1[C@@H]2CC[C@H]1C[C@@H](OC(=O)c1c[nH]c3ccccc13)C2` [tropisetron], the “Gastric accommodation, reflex relaxation or gastric sensitivity” value [4] is given as “did not influence”.
